Test results: patent US11220671B2, “Methods for the maturation of cardiomyocytes on amniotic fluid cell-derived ECM, cellular constructs, and uses for cardiotoxicity and proarrhythmic screening of drug compounds” (STEMBIOSYS, INC., priority 2019, dated 2022)
Read-outs that look alike come from different tables or passages of the source.

What was measured:
[1] = tested on: mature cardiomyocytes (hiPSC-CMs) on AFC-ECM
Protocol: The cardiotoxicity and/or proarrhythmia testing can be conducted using any type of equipment suitable for measuring such activity. In some embodiments, the cellular constructs of monolayers of mature cardiomyocytes on AFC-ECM are prepared as described supra. After the maturation process (generally 7 days or less), the electrophysiology of each well is observed using a plate reader. A suitable voltage sensitive or calcium sensitive fluorescent dye is loaded into each well. Non-limiting voltage sensitive dyes include FluoVolt™ dye commercially available from ThermoFisher. In some embodiments, the plate reader can rely on a suitable high spatiotemporal CCD camera combined with suitable lighting, such as light emitting diodes (LEDs), of the appropriate wavelength to excite each dye. Such high spatiotemporal CCD cameras are commercially available from SciMeasure. In some embodiments, the camera image acquisition rate is greater than or equal to 150 frames per second. In some embodiments, the camera and lens combination are designed such that it allows visualization of all the wells of the multi-well plate simultaneously with sufficient resolution to observe action potential and calcium wave propagation. Each plate is centered under the camera system, lighting is switched on and camera acquisition is initiated and electrophysiological activity is recorded. Experiments are performed at about 37° C. After baseline readings are made, the drug to be tested is added to the wells and the effects are recorded. Spontaneous activity is recorded for a sufficient period of time to obtain images, e.g. at least 10 seconds. The images can be stored on a computer. Images are analyzed and action potential duration, conduction velocity, beat rate and activation patterns can be quantified using image analysis software. Visualization of electrical wave patterns is important to determine a drug compound's effect to cause potentially fatal arrhythmias, e.g., Torsades de Pointes (TdP). Thus, in addition to providing information on a compound's effect on spontaneous action potential duration, the methods disclosed herein can also provide information on impulse conduction velocity and activation pattern depending on the type of equipment used.
After the 7-day maturation process the electrophysiology of each well was observed using a plate reader using the following high throughput screen method. FluoVolt™ dye in Hanks Balanced Salt Solution was loaded into each well. A high spatiotemporal CCD camera (SciMeasure DaVinci camera) combined with light emitting diodes (LEDs) as shown in the schematic in FIG. 22. The camera and lens combination were designed such that it allowed visualization of all the wells of the 96-well plate simultaneously with sufficient resolution to observe action potential and calcium wave propagation. Each plate was centered under the camera system, lighting was switched on and camera acquisition was initiated and electrophysiological activity was recorded. Experiments were performed at about 37° C. Spontaneous activity was recorded for at least 10 seconds and images were stored on a computer. […] Images were analyzed and action potential duration, conduction velocity, beat rate and activation patterns were quantified using image analysis software.
The drugs were selected from the CiPA Initiative's list of compounds for validation and testing of CiPA and are classified as high risk, intermediate risk or low risk for causing fatal arrhythmias (TdPs) in patients.

[2] = CiPA list: high, intermediate or low risk for causing fatal arrhythmias (TdPs) in patients; cited from earlier work
[3] = mature cardiomyocytes on AFC-ECM, 96-well plates, plate reader, any arrhythmia detected over Dose 1-4
[4] = mature cardiomyocytes on AFC-ECM, 96-well plates, at 10 times the effective therapeutic plasma concentration

Structure (SMILES) | APD90 Prolongation? @10X ETPC [1] | Arrhythmia Detected? [1] | Risk Category [2] | Arrhythmia Detected? [1, 3] | APD90 Prolongation? @10X ETPC [1, 4]
COc1cc2c(Nc3ccc(Br)cc3F)ncnc2cc1OCC1CCN(C)CC1 [Vandetanib] | Yes | Yes, EAD | High |  | 
CCCCCCCN(CC)CCCC(O)c1ccc(NS(C)(=O)=O)cc1 (stereo not drawn) [Ibutilide] | YeS | Yes, EAD | High |  | 
O=c1[nH]c2ccccc2n1C1CCN(CCCC(c2ccc(F)cc2)c2ccc(F)cc2)CC1 [Pimozide] | No | Yes |  |  | 
CN(CCOc1ccc(NS(C)(=O)=O)cc1)CCc1ccc(NS(C)(=O)=O)cc1 [Dofetilide] | Yes | Yes, EAD |  |  | 
Cc1nc2n(c(=O)c1CCN1CCC(c3noc4cc(F)ccc34)CC1)CCCC2 [Risperidone] |  | No |  |  | 
COc1ccc(CCN2CCC(Nc3nc4ccccc4n3Cc3ccc(F)cc3)CC2)cc1 [Astemizole] | Yes | Yes |  |  | 
CC/C(=C(\c1ccccc1)c1ccc(OCCN(C)C)cc1)c1ccccc1 [Tamoxifen] | No | No |  |  | 
Cc1cccc(C)c1OCC(C)N (stereo not drawn) [Mexiletine] | No | No |  |  | 
COc1cc(N)c(Cl)cc1C(=O)NC1CCN(CCCOc2ccc(F)cc2)CC1OC (stereo not drawn) [Cisapride] | No | Yes | Intermediate |  | 
CC(C)COCC(CN(Cc1ccccc1)c1ccccc1)N1CCCC1 (stereo not drawn) [Bepridil] | Yes | Yes, Q | High |  | 
COc1ccc(CCN(C)CCCC(C#N)(c2ccc(OC)c(OC)c2)C(C)C)cc1OC (stereo not drawn) [Verapamil] | No, Shortening | No |  |  | 
Cc1nccn1CC1CCc2c(c3ccccc3n2C)C1=O (stereo not drawn) [Ondansetron] | Yes | Yes, EAD | Intermediate |  | 
COc1ccccc1OCC(O)CN1CCN(CC(=O)Nc2c(C)cccc2C)CC1 (stereo not drawn) [Ranolazine] | No | No | Low |  | 
CN1CCN(CCCCN2C(=O)CN(/N=C/c3ccc(-c4ccc(Cl)cc4)o3)C2=O)CC1 [Azimilide] | Yes | Yes, EAD | High |  | 
CC(C)(C)c1ccc(C(O)CCCN2CCC(C(O)(c3ccccc3)c3ccccc3)CC2)cc1 (stereo not drawn) [Terfenadine] | Yes | No |  |  | 
O=C(CCCN1CC=C(n2c(=O)[nH]c3ccccc32)CC1)c1ccc(F)cc1 [Droperidol] | Yes | Yes, EAD |  |  | 
COc1ccc([C@@H]2Sc3ccccc3N(CCN(C)C)C(=O)[C@@H]2OC(C)=O)cc1 [Diltiazem] | No, shortening | No |  |  | 
CN1CCN(C2=Nc3cc(Cl)ccc3Nc3ccccc32)CC1 [Clozapine] | Yes | No |  |  | 
CC(C)N(CCC(C(N)=O)(c1ccccc1)c1ccccn1)C(C)C (stereo not drawn) [Disopyramide] | Yes | Yes, EAD, TA |  |  | 
CCOC(=O)C1=C(C)NC(C)=C(C(=O)OC)C1c1cccc([N+](=O)[O-])c1 (stereo not drawn) [Nitrendipine] | No, | No |  |  | 
C=C[C@H]1C[N@@]2CC[C@H]1C[C@@H]2[C@@H](O)c1ccnc2ccc(OC)cc12 [Quinidine] | Yes |  |  | Yes, EAD | 
COCCc1ccc(OCC(O)CNC(C)C)cc1 (stereo not drawn) [Metoprolol] | No | Yes, |  |  | 
CC(C)NCC(O)c1ccc(NS(C)(=O)=O)cc1 (stereo not drawn) [D, I Sotalol] |  |  | High | Yes, EAD | Yes
CCOC(=O)N1CCC(=C2c3ccc(Cl)cc3CCc3cccnc32)CC1 [Loratadine] |  |  |  | No | No
O=c1[nH]c2ccccc2n1CCCN1CCC(n2c(=O)[nH]c3cc(Cl)ccc32)CC1 [Domperidone] | Yes | Yes, TA |  |  | 
